Measurements reported in patent publication US10399940B2, “Substituted pyrrolidines and methods of use” (AbbVie S.à.r.l., priority 2016, dated 2019).
Like-named read-outs stand apart in the source and are kept apart here.

Molecular target: T1, F508delCFTR (Homo sapiens, UniProt P13569, DEL508-508)
T1 construct: expressed in transfected cells; host or cells: CFBE41o- (human lung derived epithelial cell line), doxycycline-inducible expression
Test: Cell Surface Expression-Horse Radish Peroxidase (CSE-HRP) assay
Assay type: cell-based
Settings: CFBE41o-F508delCFTR-HRP cells; for Maximum % activity (with co-corrector): with co-corrector (2 μM); for Maximum % activity (with co-corrector) / Maximum % activity (without co-corrector): normalized to on-plate positive control, highest concentration 20 μM
How it was run: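 Surface F508delCFTR-HRP was read by luminol luminescence after 18–24 h compound exposure at 33 °C, without or with 2 μM co-corrector. Doses were eight 3-fold steps from 20 μM, in doxycycline-induced (0.5 μg/mL, 72 h) CFBE41o- cells. % activity was scaled to the on-plate 2 μM positive control minus DMSO; EC50 came from a variable-slope sigmoid fit.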

[1] = test compound without co-corrector, 18-24 hours at 33° C., read-out: EC50 (without co-corrector)
[2] = with co-corrector (2 μM of 3-[(2R,4R)-4-({[1-(2,2-difluoro-1,3-benzodioxol-5-yl)cyclopropyl]carbonyl}amino)-7-methoxy-3,4-dihydro-2H-chromen-2-yl]benzoic acid), read-out: EC50 (with co-corrector)

T1 sequence (P13569 with tags, fused parts or gaps DEL508-508): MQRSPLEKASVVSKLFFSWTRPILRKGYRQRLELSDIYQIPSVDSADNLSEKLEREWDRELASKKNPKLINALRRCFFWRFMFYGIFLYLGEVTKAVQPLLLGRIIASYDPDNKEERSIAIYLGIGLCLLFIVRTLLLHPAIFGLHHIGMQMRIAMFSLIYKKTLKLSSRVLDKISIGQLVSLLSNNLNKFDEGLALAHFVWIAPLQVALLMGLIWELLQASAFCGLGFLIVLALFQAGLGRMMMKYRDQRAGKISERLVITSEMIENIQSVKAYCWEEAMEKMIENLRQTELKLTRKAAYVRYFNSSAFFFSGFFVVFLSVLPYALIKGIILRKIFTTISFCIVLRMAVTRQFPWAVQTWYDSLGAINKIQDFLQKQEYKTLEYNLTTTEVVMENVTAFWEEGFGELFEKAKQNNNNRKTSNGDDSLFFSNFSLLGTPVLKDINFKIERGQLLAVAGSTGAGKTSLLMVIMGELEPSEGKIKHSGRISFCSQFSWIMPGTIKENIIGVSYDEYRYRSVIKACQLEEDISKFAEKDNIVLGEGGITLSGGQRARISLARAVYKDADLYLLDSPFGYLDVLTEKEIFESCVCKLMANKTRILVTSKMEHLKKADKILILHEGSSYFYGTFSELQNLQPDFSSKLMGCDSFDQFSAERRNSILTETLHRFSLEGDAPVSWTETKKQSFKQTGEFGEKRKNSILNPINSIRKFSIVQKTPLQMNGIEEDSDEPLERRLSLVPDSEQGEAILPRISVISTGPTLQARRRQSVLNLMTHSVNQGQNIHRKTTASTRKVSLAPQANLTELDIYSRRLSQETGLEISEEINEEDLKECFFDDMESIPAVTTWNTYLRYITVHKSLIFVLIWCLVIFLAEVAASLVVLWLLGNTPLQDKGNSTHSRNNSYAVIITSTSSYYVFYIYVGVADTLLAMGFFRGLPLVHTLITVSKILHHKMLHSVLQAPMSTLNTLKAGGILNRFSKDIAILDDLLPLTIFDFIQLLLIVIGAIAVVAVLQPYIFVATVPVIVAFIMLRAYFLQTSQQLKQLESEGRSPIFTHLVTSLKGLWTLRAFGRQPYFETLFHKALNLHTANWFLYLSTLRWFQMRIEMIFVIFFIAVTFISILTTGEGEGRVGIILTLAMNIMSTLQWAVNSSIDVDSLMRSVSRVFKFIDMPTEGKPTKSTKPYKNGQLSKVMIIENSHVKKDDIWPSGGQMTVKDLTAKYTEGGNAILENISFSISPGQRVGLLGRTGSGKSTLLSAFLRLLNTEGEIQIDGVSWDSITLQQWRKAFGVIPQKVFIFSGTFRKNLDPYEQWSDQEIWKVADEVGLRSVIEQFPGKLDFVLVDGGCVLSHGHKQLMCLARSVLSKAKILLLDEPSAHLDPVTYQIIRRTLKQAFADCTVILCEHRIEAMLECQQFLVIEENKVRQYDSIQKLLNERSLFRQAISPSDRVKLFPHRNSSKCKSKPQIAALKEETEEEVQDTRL

Compound | EC50 [1] [nM] | EC50 [2] [nM] | Maximum % activity (with co-corrector) | Maximum % activity (without co-corrector)
COc1ccc(C(F)(F)F)cc1C(=O)CO[C@H]1[C@H](C(C)(C)C)[C@@H](C(=O)O)N(C(=O)[C@@H]2CCCCO2)[C@H]1c1ccccc1C [Example 264, (2S,3R,4S,5S)-3-tert-butyl-4-{2-[2-methoxy-5-(trifluoromethyl)phenyl]-2-oxoethoxy}-5-(2-methylphenyl)-1-[(2S)-oxane-2-carbonyl]pyrrolidine-2-carboxylic acid] | 1000 to 10000 | 1000 to 10000 | +++ (≥350) | + (<100)
COc1ncc(C2CCC2)cc1CO[C@H]1[C@H](C(C)(C)C)[C@@H](C(=O)O)N(C(=O)OC(C)C(F)(F)F)[C@H]1c1cccnc1OC(C)C (stereo partly drawn) [Example 265, (2S,3R,4S,5S)-3-tert-butyl-4-[(5-cyclobutyl-2-methoxypyridin-3-yl)methoxy]-5-{2-[(propan-2-yl)oxy]pyridin-3-yl}-1-{[(1,1,1-trifluoropropan-2-yl)oxy]carbonyl}pyrrolidine-2-carboxylic acid] | < 1000 | < 1000 | +++ (≥350) | ++ (≥100 and <200)
COc1ncc(C2CCC2)cc1CO[C@H]1[C@H](C(C)(C)C)[C@@H](C(=O)O)N(C(=O)O[C@H](C)C(F)(F)F)[C@H]1c1cccnc1OC(C)C [Example 266, (2S,3R,4S,5S)-3-tert-butyl-4-[(5-cyclobutyl-2-methoxypyridin-3-yl)methoxy]-5-{2-[(propan-2-yl)oxy]pyridin-3-yl}-1-({[(2R)-1,1,1-trifluoropropan-2-yl]oxy}carbonyl)pyrrolidine-2-carboxylic acid] | 1000 to 10000 | < 1000 | +++ (≥350) | ++ (≥100 and <200)
COc1ncc(C2CCC2)cc1CO[C@H]1[C@H](C(C)(C)C)[C@@H](C(=O)O)N(C(=O)O[C@@H](C)C(F)(F)F)[C@H]1c1cccnc1OC(C)C [Example 267, (2S,3R,4S,5S)-3-tert-butyl-4-[(5-cyclobutyl-2-methoxypyridin-3-yl)methoxy]-5-{2-[(propan-2-yl)oxy]pyridin-3-yl}-1-({[(2S)-1,1,1-trifluoropropan-2-yl]oxy}carbonyl)pyrrolidine-2-carboxylic acid] | 1000 to 10000 | < 1000 | +++ (≥350) | ++ (≥100 and <200)
COc1ccc(C(F)(F)F)cc1C(O)CO[C@H]1[C@H](C(C)(C)C)[C@@H](C(=O)O)N(C(=O)[C@@H]2CCCCO2)[C@H]1c1ccccc1C (stereo partly drawn) [Example 268, (2S,3R,4S,5S)-3-tert-butyl-4-{2-hydroxy-2-[2-methoxy-5-(trifluoromethyl)phenyl]ethoxy}-5-(2-methylphenyl)-1-[(2S)-oxane-2-carbonyl]pyrrolidine-2-carboxylic acid] | 1000 to 10000 | 1000 to 10000 | +++ (≥350) | + (<100)
COc1ccc(C(F)(F)F)cc1C(CO[C@H]1[C@H](C(C)(C)C)[C@@H](C(=O)O)N(C(=O)[C@@H]2CCCCO2)[C@H]1c1ccccc1C)OC (stereo partly drawn) [Example 269, (2S,3R,4S,5S)-3-tert-butyl-4-{2-methoxy-2-[2-methoxy-5-(trifluoromethyl)phenyl]ethoxy}-5-(2-methylphenyl)-1-[(2S)-oxane-2-carbonyl]pyrrolidine-2-carboxylic acid] | 1000 to 10000 | < 1000 | +++ (≥350) | +++ (≥200)
COc1ccc(C(C)(C)C)cc1CO[C@H]1[C@H](C(C)(C)OC)[C@@H](C(=O)O)N(C(=O)[C@@H]2CCCCO2)[C@H]1c1ccccc1C(C)C [Example 270, (2S,3R,4S,5S)-4-[(5-tert-butyl-2-methoxyphenyl)methoxy]-3-(2-methoxypropan-2-yl)-1-[(2S)-oxane-2-carbonyl]-5-[2-(propan-2-yl)phenyl]pyrrolidine-2-carboxylic acid] | < 1000 | < 1000 | +++ (≥350) | +++ (≥200)
COc1ncc(C(F)(F)F)cc1CO[C@H]1[C@H](C(C)(C)C)[C@@H](C(=O)O)N(C(=O)O[C@@H](C)C(F)(F)F)[C@H]1c1cccnc1OC(C)C [Example 271, (2S,3R,4S,5S)-3-tert-butyl-4-{[2-methoxy-5-(trifluoromethyl)pyridin-3-yl]methoxy}-5-{2-[(propan-2-yl)oxy]pyridin-3-yl}-1-({[(2S)-1,1,1-trifluoropropan-2-yl]oxy}carbonyl)pyrrolidine-2-carboxylic acid] | < 1000 | < 1000 | +++ (≥350) | ++ (≥100 and <200)
COc1ccc(C(F)(F)F)cc1[C@@H](C)CO[C@H]1[C@H](C(C)(C)C)[C@@H](C(=O)O)N(C(=O)[C@@H]2CCCCO2)[C@H]1c1ccccc1C [Example 272, (2S,3R,4S,5S)-3-tert-butyl-4-{(2R)-2-[2-methoxy-5-(trifluoromethyl)phenyl]propoxy}-5-(2-methylphenyl)-1-[(2S)-oxane-2-carbonyl]pyrrolidine-2-carboxylic acid] | < 1000 | < 1000 | +++ (≥350) | +++ (≥200)
COc1ccc(C(F)(F)F)cc1[C@H](C)CO[C@H]1[C@H](C(C)(C)C)[C@@H](C(=O)O)N(C(=O)[C@@H]2CCCCO2)[C@H]1c1ccccc1C [Example 273, (2S,3R,4S,5S)-3-tert-butyl-4-{(2S)-2-[2-methoxy-5-(trifluoromethyl)phenyl]propoxy}-5-(2-methylphenyl)-1-[(2S)-oxane-2-carbonyl]pyrrolidine-2-carboxylic acid] | < 1000 | < 1000 | +++ (≥350) | +++ (≥200)
COc1ccc(C(C)(C)C)cc1CO[C@H]1[C@H](C(C)(C)C)[C@@H](C(=O)O)N(C(=O)O[C@@H](C)C(F)(F)F)[C@H]1c1cccnc1OC(C)C [Example 274, (2S,3R,4S,5S)-3-tert-butyl-4-[(5-tert-butyl-2-methoxyphenyl)methoxy]-5-{2-[(propan-2-yl)oxy]pyridin-3-yl}-1-({[(2S)-1,1,1-trifluoropropan-2-yl]oxy}carbonyl)pyrrolidine-2-carboxylic acid] | < 1000 | < 1000 | +++ (≥350) | +++ (≥200)
COc1ncc(C2CCC2)cc1CO[C@H]1[C@H](C(C)(C)C)[C@@H](C(=O)O)N(C(=O)C2(C(F)(F)F)CC2)[C@H]1c1cccnc1OC(C)C [Example 275, (2S,3R,4S,5S)-3-tert-butyl-4-[(5-cyclobutyl-2-methoxypyridin-3-yl)methoxy]-5-{2-[(propan-2-yl)oxy]pyridin-3-yl}-1-[1-(trifluoromethyl)cyclopropane-1-carbonyl]pyrrolidine-2-carboxylic acid] | > 10000 | 1000 to 10000 | ++ (≥150 and <350) | + (<100)
COc1ncc(C2CCC2)cc1CO[C@H]1[C@H](C(C)(C)C)[C@@H](C(=O)O)N(C(=O)C2(C(F)(F)F)CCCC2)[C@H]1c1cccnc1OC(C)C [Example 276, (2S,3R,4S,5S)-3-tert-butyl-4-[(5-cyclobutyl-2-methoxypyridin-3-yl)methoxy]-5-{2-[(propan-2-yl)oxy]pyridin-3-yl}-1-[1-(trifluoromethyl)cyclopentane-1-carbonyl]pyrrolidine-2-carboxylic acid] | > 10000 | < 1000 | ++ (≥150 and <350) | + (<100)
COc1ncc(C(F)(F)F)cc1C#CCO[C@H]1[C@H](C(C)(C)C)[C@@H](C(=O)O)N(C(=O)OC(C)C)[C@H]1c1ccccc1 [Example 277, (2S,3R,4S,5S)-3-tert-butyl-4-({3-[2-methoxy-5-(trifluoromethyl)pyridin-3-yl]prop-2-yn-1-yl}oxy)-5-phenyl-1-{[(propan-2-yl)oxy]carbonyl}pyrrolidine-2-carboxylic acid] | < 1000 | < 1000 | +++ (≥350) | + (<100)
CCc1ccccc1[C@H]1[C@@H](OCC#Cc2cc(C(F)(F)F)cnc2OC)[C@H](C(C)(C)C)[C@@H](C(=O)O)N1C(=O)[C@@H]1CCCCO1 [Example 278, (2S,3R,4S,5S)-3-tert-butyl-5-(2-ethylphenyl)-4-({3-[2-methoxy-5-(trifluoromethyl)pyridin-3-yl]prop-2-yn-1-yl}oxy)-1-[(2S)-oxane-2-carbonyl]pyrrolidine-2-carboxylic acid] | 1000 to 10000 | < 1000 | +++ (≥350) | ++ (≥100 and <200)
CC(C)Oc1ncccc1[C@H]1[C@@H](OCc2coc3ccc(C(F)(F)F)cc23)[C@H](C(C)(C)C)[C@@H](C(=O)O)N1C(=O)C1CCCCC1 [Example 279, (2S,3R,4S,5S)-3-tert-butyl-1-(cyclohexanecarbonyl)-5-{2-[(propan-2-yl)oxy]pyridin-3-yl}-4-{[5-(trifluoromethyl)-1-benzofuran-3-yl]methoxy}pyrrolidine-2-carboxylic acid] | < 1000 | < 1000 | +++ (≥350) | ++ (≥100 and <200)
